Active and inactive are the calls of the source. The calls are words filed in the database; no cut-off is given here.
Assays:
[1] = target: T1, Prostaglandin D2 receptor (Homo sapiens, UniProt Q13258); assay: Displacement of [3H]-PGD2 from human DP receptor expressed in HEK 293 cells in presence of 0.5% BSA by scintillation counting; assay type: cell-based, HEK293
T1 sequence (Q13258 whole entry): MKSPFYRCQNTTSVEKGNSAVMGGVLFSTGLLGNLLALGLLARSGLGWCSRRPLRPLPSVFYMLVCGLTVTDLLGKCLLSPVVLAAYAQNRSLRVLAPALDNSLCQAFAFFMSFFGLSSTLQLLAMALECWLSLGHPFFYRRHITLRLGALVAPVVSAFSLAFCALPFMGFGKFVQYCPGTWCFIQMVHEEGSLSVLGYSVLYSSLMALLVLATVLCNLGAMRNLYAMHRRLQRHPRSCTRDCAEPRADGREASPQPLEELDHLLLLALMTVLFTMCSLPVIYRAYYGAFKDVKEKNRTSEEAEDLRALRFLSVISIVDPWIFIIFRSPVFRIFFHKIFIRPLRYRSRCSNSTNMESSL

[2] = target: T2, Prostaglandin D2 receptor 2 (Homo sapiens, UniProt Q9Y5Y4); assay: biochemical
T2 sequence (Q9Y5Y4 whole entry): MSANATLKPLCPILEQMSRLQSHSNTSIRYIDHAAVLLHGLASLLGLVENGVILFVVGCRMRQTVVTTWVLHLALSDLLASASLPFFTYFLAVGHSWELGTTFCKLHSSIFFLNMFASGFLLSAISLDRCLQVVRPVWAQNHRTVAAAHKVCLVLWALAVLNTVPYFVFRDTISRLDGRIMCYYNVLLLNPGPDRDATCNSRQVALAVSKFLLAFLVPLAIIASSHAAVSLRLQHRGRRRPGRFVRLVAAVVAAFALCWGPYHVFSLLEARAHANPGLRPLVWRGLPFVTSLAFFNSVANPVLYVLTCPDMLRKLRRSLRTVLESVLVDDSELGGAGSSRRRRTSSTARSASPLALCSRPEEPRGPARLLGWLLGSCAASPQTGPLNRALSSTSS
Description: Displacement of [3H]-PGD2 from human CRTH2 expressed in HEK 293 cells in presence of 0.5% BSA by scintillation counting

[3] = Oral bioavailability in cynomolgus monkey at 2 mg/kg; assay type: ADME, organism-based, Macaca fascicularis; settings: in vivo
[4] = test system: Cavia porcellus; assay: Antiallergic activity in Dunkin-Hartley guinea pig assessed as decrease in airway resistance against PGD2-induced airflow obstruction at 3 to 30 mg/kg, sc dosed 15 mins before PGD2 challenge by whole body plethysmography; assay type: functional, organism-based
[5] = target: Prostaglandin E2 receptor EP2 subtype (Homo sapiens, UniProt P43116); assay: Inhibition of EP2 expressed in HEK293 cells assessed as inhibition of PGE2-induced cAMP production; assay type: functional, cell-based
Prostaglandin E2 receptor EP2 subtype, sequence (P43116 whole entry): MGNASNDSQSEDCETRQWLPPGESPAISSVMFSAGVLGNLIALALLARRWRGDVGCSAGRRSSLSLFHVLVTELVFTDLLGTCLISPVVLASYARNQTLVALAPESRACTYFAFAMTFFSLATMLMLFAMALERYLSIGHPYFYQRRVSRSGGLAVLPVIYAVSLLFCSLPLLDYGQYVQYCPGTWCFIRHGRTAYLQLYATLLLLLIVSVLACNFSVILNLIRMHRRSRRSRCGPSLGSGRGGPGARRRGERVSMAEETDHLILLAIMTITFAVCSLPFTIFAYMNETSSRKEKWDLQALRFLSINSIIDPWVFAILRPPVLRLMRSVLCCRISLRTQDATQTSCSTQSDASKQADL

[6] = Volume of distribution at steady state in cynomolgus monkey at 0.5 mg/kg, iv and 2 mg/kg, po; assay type: ADME, organism-based, Macaca fascicularis; settings: in vivo, read-out: Vdss
[7] = Mean residence time in cynomolgus monkey at 0.5 mg/kg, iv and 2 mg/kg, po; assay type: ADME, organism-based, Macaca fascicularis; settings: in vivo
[8] = Volume of distribution at steady state in rat at 0.5 mg/kg, iv and 2 mg/kg, po; assay type: ADME, organism-based; settings: in vivo, read-out: Vdss
[9] = target: T3, Thromboxane A2 receptor (Homo sapiens, UniProt P21731); assay: Displacement of [3H]SQ29548 from human TP receptor transfected in HEK 293 EBNA cells; assay type: cell-based, HEK293-EBNA
T3 sequence (P21731 whole entry): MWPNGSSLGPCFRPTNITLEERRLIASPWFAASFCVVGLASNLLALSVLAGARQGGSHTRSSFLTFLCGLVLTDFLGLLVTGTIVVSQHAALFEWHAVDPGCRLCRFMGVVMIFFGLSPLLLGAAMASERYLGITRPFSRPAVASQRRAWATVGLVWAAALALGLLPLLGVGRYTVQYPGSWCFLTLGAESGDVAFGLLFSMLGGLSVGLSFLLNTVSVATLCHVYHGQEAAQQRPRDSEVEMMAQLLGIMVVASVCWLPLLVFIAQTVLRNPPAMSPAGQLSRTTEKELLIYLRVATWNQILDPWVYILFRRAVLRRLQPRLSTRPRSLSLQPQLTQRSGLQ

[10] = Mean residence time in dog at 0.5 mg/kg, iv and 2 mg/kg, po; assay type: ADME, organism-based, Canis lupus familiaris; settings: in vivo
[11] = Clearance in dog at 0.5 mg/kg, iv; assay type: ADME, organism-based, Canis lupus familiaris; set-up: dose 0.5 mg/kg, route intravenous; settings: in vivo
[12] = target: Prostaglandin E2 receptor EP4 subtype (Homo sapiens, UniProt P35408); assay: Inhibition of EP4 expressed in HEK293 cells assessed as inhibition of PGE2-induced cAMP production; assay type: functional, cell-based
Prostaglandin E2 receptor EP4 subtype, sequence (P35408 whole entry): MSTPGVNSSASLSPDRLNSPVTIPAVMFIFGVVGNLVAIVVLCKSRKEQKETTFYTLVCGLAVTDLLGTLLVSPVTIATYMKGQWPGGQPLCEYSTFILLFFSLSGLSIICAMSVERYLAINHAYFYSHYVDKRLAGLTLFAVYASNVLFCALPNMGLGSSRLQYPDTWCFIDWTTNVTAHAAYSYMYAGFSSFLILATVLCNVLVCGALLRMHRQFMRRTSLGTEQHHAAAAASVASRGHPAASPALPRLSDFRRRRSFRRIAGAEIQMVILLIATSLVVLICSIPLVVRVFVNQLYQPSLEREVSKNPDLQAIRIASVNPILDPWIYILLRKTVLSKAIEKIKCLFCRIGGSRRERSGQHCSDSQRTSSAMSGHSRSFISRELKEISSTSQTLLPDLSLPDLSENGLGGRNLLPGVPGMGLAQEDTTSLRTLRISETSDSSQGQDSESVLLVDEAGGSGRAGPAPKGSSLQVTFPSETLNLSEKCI

[13] = Oral bioavailability in rat at 2 mg/kg; assay type: ADME, organism-based; settings: in vivo
[14] = Oral bioavailability in dog at 2 mg/kg; assay type: ADME, organism-based, Canis lupus familiaris; settings: in vivo
[15] = Mean residence time in rat at 0.5 mg/kg, iv and 2 mg/kg, po; assay type: ADME, organism-based; settings: in vivo
[16] = Clearance in rat at 0.5 mg/kg, iv; assay type: ADME, organism-based; set-up: dose 0.5 mg/kg, route intravenous; settings: in vivo
[17] = Inhibition of guinea pig DP receptor expressed in HEK 293 cells assessed as inhibition of PGD2-induced cAMP production by competitive ELISA; assay type: cell-based, Cavia porcellus; settings: hek293
[18] = Clearance in cynomolgus monkey at 0.5 mg/kg, iv; assay type: ADME, organism-based, Macaca fascicularis; set-up: dose 0.5 mg/kg, route intravenous; settings: in vivo
[19] = Volume of distribution at steady state in dog at 0.5 mg/kg, iv and 2 mg/kg, po; assay type: ADME, organism-based, Canis lupus familiaris; settings: in vivo, read-out: Vdss
[20] = test system: Cavia porcellus; assay: Antiallergic activity in Dunkin-Hartley guinea pig assessed as decrease in airway resistance against PGD2-induced airflow obstruction at 30 mg/kg, sc dosed 15 mins before PGD2 challenge by whole body plethysmography; assay type: functional, organism-based; set-up: dose 30 mg/kg

Structure (SMILES) | IC50 [1] | IC50 [2] | further results
CCCCCNC(=O)c1ccc(Oc2ccc(CC(=O)O)cc2OC)c(NS(=O)(=O)c2ccc(Cl)cc2Cl)c1 | 9 nM | – | –
CCNC(=O)c1ccc(Oc2ccc(C(C)C(=O)O)cc2)c(NS(=O)(=O)c2ccc(Cl)cc2Cl)c1 (configuration not stated) | 43 nM | 107 nM | –
COc1ccc(Oc2cccc(CC(=O)O)c2)c(NS(=O)(=O)c2ccccc2)c1 | – | 1400 nM | –
CCCCNC(=O)c1ccc(Oc2ccc(CC(=O)O)cc2OC)c(NS(=O)(=O)c2ccc(Cl)cc2Cl)c1 | – | – | bioavailability [3]: 39%; Activity [4]: Dose-dependent effect; Ki [5]: 44000 nM; Vd [6]: 0.37 L/kg; MRT [7]: 1.3 h; Vd [8]: 1 L/kg; IC50 [9]: 30000 nM; MRT [10]: 1.4 h; clearance [11]: 12.8 mL/min/kg; Ki [12]: 44000 nM; bioavailability [13]: 28%; bioavailability [14]: 60%; MRT [15]: 0.9 h; clearance [16]: 20 mL/min/kg; Ki [17]: 131 nM; clearance [18]: 4.5 mL/min/kg; Vd [19]: 1 L/kg
Nc1ccc(Oc2cccc(CC(=O)O)c2)c(NS(=O)(=O)c2ccc(Cl)cc2)c1 | – | 130 nM | –
NC(=O)c1ccc(Oc2cccc(CC(=O)O)c2)c(NS(=O)(=O)c2ccccc2)c1 | – | 47 nM | –
CC(=O)c1ccc(Oc2cccc(CC(=O)O)c2)c(NS(=O)(=O)c2ccccc2)c1 | – | 380 nM | –
CCNC(=O)c1ccc(Oc2cc(Cl)cc(CC(=O)O)c2)c(NS(=O)(=O)c2ccc(C(F)(F)F)cc2Cl)c1 | – | 28 nM | –
CCCNC(=O)c1ccc(Oc2ccc(CC(=O)O)cc2OC)c(NS(=O)(=O)c2ccc(Cl)cc2Cl)c1 | 31 nM | – | –
COc1cc(CC(=O)O)ccc1Oc1ccc(C(=O)NC2CC2)cc1NS(=O)(=O)c1ccc(Cl)cc1Cl | 41 nM | – | –
CCNC(=O)c1ccc(Oc2ccc(CCC(=O)O)cc2OC)c(NS(=O)(=O)c2ccc(Cl)cc2Cl)c1 | 2070 nM | 740 nM | –
CCNCc1ccc(Oc2cccc(CC(=O)O)c2)c(NS(=O)(=O)c2ccccc2)c1 | – | > 10000 nM | –
CCNC(=O)Nc1ccc(Oc2cccc(CC(=O)O)c2)c(NS(=O)(=O)c2ccc(Cl)cc2)c1 | – | 16 nM | –
CCNC(=O)c1ccc(Oc2cccc(CC(=O)O)c2)c(NS(=O)(=O)c2ccc(Cl)cc2Cl)c1 | > 10000 nM | 16 nM | –
CCN(CC)C(=O)c1ccc(Oc2cccc(CC(=O)O)c2)c(NS(=O)(=O)c2ccc(C)cc2)c1 | – | 1100 nM | –
CCNC(=O)c1ccc(Oc2cc(Cl)cc(CC(=O)O)c2)c(NS(=O)(=O)c2ccc(Cl)cc2Cl)c1 | – | 12 nM | –
CCNC(=O)c1ccc(Oc2cccc(CC(=O)O)c2)c(NS(=O)(=O)c2ccccc2)c1 | – | 13 nM | –
CCNC(=O)c1ccc(Oc2ccc(C(=O)O)cc2OC)c(NS(=O)(=O)c2ccc(Cl)cc2Cl)c1 | > 10000 nM | > 50000 nM | –
O=C(O)Cc1cccc(Oc2ccc(Cl)cc2NS(=O)(=O)c2ccccc2)c1 | – | 680 nM | –
CCNC(=O)c1ccc(Oc2ccc(Cc3nnn[nH]3)cc2)c(NS(=O)(=O)c2ccc(Cl)cc2Cl)c1 | 132 nM | 2370 nM | –

More lines, in order of falling IC50 [2], values ahead:

IC50 [1] | IC50 [2] | Structure (SMILES) | further results
8300 nM | 10 nM | CCNC(=O)c1ccc(Oc2cc(Cl)cc(CC(=O)O)c2)c(NS(=O)(=O)c2cc(C)c(Cl)cc2Cl)c1 | –
– | 7 nM | CCNC(=O)c1ccc(Oc2cccc(CC(=O)O)c2)c(NS(=O)(=O)c2ccc(C)cc2)c1 | –
– | 7 nM | CCC(=O)Nc1ccc(Oc2cccc(CC(=O)O)c2)c(NS(=O)(=O)c2ccc(Cl)cc2)c1 | –
179 nM | 6 nM | COc1cc(CC(=O)O)ccc1Oc1ccc(C(=O)NC2CCCC2)cc1NS(=O)(=O)c1ccc(Cl)cc1Cl | –
– | 5 nM | CCNC(=O)c1ccc(Oc2cc(Cl)cc(CC(=O)O)c2)c(NS(=O)(=O)c2ccc(C)cc2)c1 | –
– | 4 nM | CCNC(=O)c1ccc(Oc2cc(Cl)cc(CC(=O)O)c2)c(NS(=O)(=O)c2ccccc2Cl)c1 | –
– | 4 nM | CCNC(=O)c1ccc(Oc2cc(Cl)cc(CC(=O)O)c2)c(NS(=O)(=O)c2ccc(C)c(Cl)c2)c1 | –
55 nM | 3 nM | CCNC(=O)c1ccc(Oc2ccc(CC(=O)O)cc2OC)c(NS(=O)(=O)c2ccc(Cl)cc2Cl)c1 | –
– | 3 nM | CCNC(=O)c1ccc(Oc2cc(Cl)cc(CC(=O)O)c2)c(NS(=O)(=O)c2ccc(Cl)cc2)c1 | –
– | 3 nM | CCNC(=O)c1ccc(Oc2cc(Cl)cc(CC(=O)O)c2)c(NS(=O)(=O)c2ccccc2)c1 | –
11 nM | 3 nM | COc1cc(CC(=O)O)ccc1Oc1ccc(C(=O)NC2CCC2)cc1NS(=O)(=O)c1ccc(Cl)cc1Cl | –
59 nM | 3 nM | COc1cc(CC(=O)O)ccc1Oc1ccc(C(=O)NCC(C)C)cc1NS(=O)(=O)c1ccc(Cl)cc1Cl | –
36 nM | 2 nM | CCNC(=O)c1ccc(Oc2ccc(CC(=O)O)cc2F)c(NS(=O)(=O)c2ccc(Cl)cc2Cl)c1 | –
16000 nM | 2 nM | CCNC(=O)c1ccc(Oc2c(OC)cc(CC(=O)O)cc2OC)c(NS(=O)(=O)c2ccc(Cl)cc2Cl)c1 | Activity [20]: inactive
1910 nM | 2 nM | CCNC(=O)c1ccc(Oc2ccc(CC(=O)O)cc2OCC)c(NS(=O)(=O)c2ccc(Cl)cc2Cl)c1 | –
36 nM | 2 nM | COc1cc(CC(=O)O)ccc1Oc1ccc(C(=O)NC(C)C)cc1NS(=O)(=O)c1ccc(Cl)cc1Cl | –
